Laboratory results as given in patent US20220348595A1, “COMPOUNDS AND METHODS FOR THE TARGETED DEGRADATION OF ESTROGEN RECEPTORS” (Endotarget Inc., priority 2021, published 2022).

Legend:
Format in all cases: cell-based
ER = biological target: T1, ER (Homo sapiens, UniProt P03372); assay: ER antagonism (T47D ERE luciferase), T47d-kb-Luc cells; conditions: read-out: IC50 (ER antagonistm)
T1 construct: endogenous in cells; host or cells: T47d-kb-Luc (T47D stably transfected with a luciferase reporter gene only)
T1 sequence (P03372 1-595): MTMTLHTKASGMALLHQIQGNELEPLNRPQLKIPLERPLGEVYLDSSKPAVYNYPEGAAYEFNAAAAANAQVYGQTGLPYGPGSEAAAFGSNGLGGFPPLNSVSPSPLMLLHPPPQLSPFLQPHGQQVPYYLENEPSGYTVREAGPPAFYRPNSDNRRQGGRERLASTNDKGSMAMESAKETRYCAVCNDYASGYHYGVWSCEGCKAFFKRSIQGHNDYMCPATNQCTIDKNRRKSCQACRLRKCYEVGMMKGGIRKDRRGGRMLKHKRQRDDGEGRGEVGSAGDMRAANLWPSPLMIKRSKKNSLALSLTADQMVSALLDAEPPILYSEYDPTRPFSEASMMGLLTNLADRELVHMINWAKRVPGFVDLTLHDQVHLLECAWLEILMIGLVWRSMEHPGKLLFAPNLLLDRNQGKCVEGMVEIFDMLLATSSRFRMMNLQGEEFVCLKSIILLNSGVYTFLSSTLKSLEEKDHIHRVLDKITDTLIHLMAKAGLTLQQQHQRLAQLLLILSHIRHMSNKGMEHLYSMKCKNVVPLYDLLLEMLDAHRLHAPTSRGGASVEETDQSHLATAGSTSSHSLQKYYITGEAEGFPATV
Experimental: The Antiestrogenic Activity of the Exemplary Compounds was Assessed in T47d-kb-Luc Stably Transfected Human Breast Cancer Cell
Antagonist activities were measured by the compound's ability to inhibit the activity of estradiol, the natural estrogen. Data were then normalized relative to the activity of the estradiol control and determinations were performed for five concentrations of the samples in quadruplicate in at least three separate experiments.

ERα = biological target: T2, ERα (Homo sapiens, UniProt P03372); assay: ER degradation in MCF-7 cells (Western blot); conditions: for DC50: ER degradation, 24 hours; for Dmax: MCF7, Maximal ER degradation, read-out: Dmax
T2 construct: endogenous in cells; host or cells: MCF-7
T2 sequence (P03372 1-595): T1 sequence (P03372 1-595)
Experimental: Degradation of ER in MCF-7 Breast Cancer Cells by Exemplary Compounds of the Present Disclosure
MCF-7 cells were plated in 24-well plates at a density of 10^5 cells/well. Media containing various drug concentrations were added on the day following plating (day 0) and allowed to incubate for 24 hours for Western blot. Media with the tested compound was changed every other day. Cells were lysed, snapped frozen in liquid nitrogen, and stored at −80° C. until assay for ERα. Media were removed and dishes were washed with 1× DPBS. Lysates were made by adding 150 μL of complete lysis solution and scraping cells into a 1.5 mL microcentrifuge tube. Lysates were placed on a rotisserie at 4° C. for 30 min and then spun at 4° C. at 12000 rcf for 10 min. Supernatants were assayed for protein content, snap-frozen, and stored a −80° C. if not run immediately. Then 50 μg of protein was subjected to Western blot protocol. Membranes were blocked and then incubated with 1:200 dilution of ERα antibody at 4° C. overnight followed by 1:10000 dilution of secondary antibody for 1 h at room temperature. They were then imaged on a LICOR infrared scanner.
FIGS. 1 to 10 show the ER degradation efficacy of compounds 3, 5, 9, 11, 12, 16, 18, 19, 20, 21, 23, 24, 25, 26, 27, 28, 29, 30, 31, 32, 33, 34, 37, 38, and 40 in MCF-7 cells at various concentrations. Degradation of ER was expressed as an DC50 value and was determined for exemplary compounds in Table 1 by calculation of the concentration of compound that was required to give a 50% reduction of ER expression level. Maximal degradation of ER was expressed as a Dmax value by measuring the highest percentage of ER reduction achieved by exemplary compound in the treatment concentration range.

[1] = system: MCF-7 breast cancer cells; assay: MCF-7 proliferation / cell viability assay; conditions: Homo sapiens, MCF7; MCF-7 proliferation with 0.1 nM 17-beta estradiol; read-out: IC50 (anti-proliferation)
Experimental: The Anti-Proliferative Activities of the Exemplary Compounds were Assessed by a Cell Viability Assay in MCF-7 Breast Cancer Cells
MCF-7 cells were plated in six-well plates at a density of 50,000 each well in 5% FBS DMEM medium. The cells were then treated with exemplary compounds or fulvestrant separately at 6 different doses ranging from 10^−10 M to 10^−5 M for 5 days, while equal volumes of DMSO were used as vehicle controls. Viable cell numbers were counted with a Z Series Coulter Counter instrument (Beckman-Coulter) following manufacturer's instructions. The ratio of drug treated viable cell numbers to vehicle treated viable cell numbers was defined as survival ratio where the control has the survival ratio of 100%.

IC50 (ER)	DC50 (ERα)	Dmax (ERα)	IC50 [1]	Structure (SMILES)
10 to 50 nM	10 to 50 nM	> 75%	10 to 50 nM	CC/C(=C(/c1ccc(OCCN2CCN(CCCNc3ccc4c(c3)C(=O)N(C3CCC(=O)NC3=O)C4=O)CC2)cc1)c1ccc(B(O)O)cc1)c1ccccc1 (stereo not shown) [Compound 15, (Z)-(4-(1-(4-(2-(4-(3-((2-(2,6-dioxopiperidin-3-yl)-1,3-dioxoisoindolin-5-yl)amino)propyl)piperazin-1-yl)ethoxy)phenyl)-2-phenylbut-1-en-1-yl)phenyl)boronic acid]
> 50 nM	10 to 50 nM	> 75%	> 50 nM	CC/C(=C(/c1ccc(OCCN2CCC(CN3CCN(c4ccc5c(c4)C(=O)N(C4CCC(=O)NC4=O)C5=O)CC3)CC2)cc1)c1ccc(B(O)O)cc1)c1ccccc1 (stereo not shown) [Compound 19, (Z)-(4-(1-(4-(2-(4-((4-(2-(2,6-dioxopiperidin-3-yl)-1,3-dioxoisoindolin-5-yl)piperazin-1-yl)methyl)piperidin-1-yl)ethoxy)phenyl)-2-phenylbut-1-en-1-yl)phenyl)boronic acid]
> 50 nM	10 to 50 nM	> 75%	> 50 nM	CC/C(=C(\c1ccc(OCCN2CCC(CN3CCN(c4ccc5c(c4)C(=O)N(C4CCC(=O)NC4=O)C5=O)CC3)CC2)cc1)c1ccc(B(O)O)cc1)c1ccccc1 (stereo not shown) [Compound 20, (E)-(4-(1-(4-(2-(4-((4-(2-(2,6-dioxopiperidin-3-yl)-1,3-dioxoisoindolin-5-yl)piperazin-1-yl)methyl)piperidin-1-yl)ethoxy)phenyl)-2-phenylbut-1-en-1-yl)phenyl)boronic acid]
< 10 nM	< 10 nM	> 90%	< 10 nM	CC/C(=C(/c1ccc(OCCN2CCN(CC3CCN(c4ccc5c(c4)CN(C4CCC(=O)NC4=O)C5=O)CC3)CC2)cc1)c1ccc(B(O)O)cc1)c1ccccc1 (stereo not shown) [Compound 21, (Z)-(4-(1-(4-(2-(4-((1-(2-(2,6-dioxopiperidin-3-yl)-1-oxoisoindolin-5-yl)piperidin-4-yl)methyl)piperazin-1-yl)ethoxy)phenyl)-2-phenylbut-1-en-1-yl)phenyl)boronic acid]
< 10 nM	< 10 nM	> 90%	< 10 nM	CC/C(=C(\c1ccc(OCCN2CCN(CC3CCN(c4ccc5c(c4)CN(C4CCC(=O)NC4=O)C5=O)CC3)CC2)cc1)c1ccc(B(O)O)cc1)c1ccccc1 (stereo not shown) [Compound 22, (E)-(4-(1-(4-(2-(4-((1-(2-(2,6-dioxopiperidin-3-yl)-1-oxoisoindolin-5-yl)piperidin-4-yl)methyl)piperazin-1-yl)ethoxy)phenyl)-2-phenylbut-1-en-1-yl)phenyl)boronic acid]
10 to 50 nM	< 10 nM	> 90%	10 to 50 nM	CC/C(=C(\c1ccc(OCCN2CCN(CCN3CCN(c4ccc5c(c4)C(=O)N(C4CCC(=O)NC4=O)C5=O)CC3)CC2)cc1)c1ccc(B(O)O)cc1)c1ccccc1 (stereo not shown) [Compound 24]
> 50 nM	< 10 nM	> 90%	10 to 50 nM	CC/C(=C(\c1ccc(OCCN2CCC(CCN3CCN(c4ccc5c(c4)C(=O)N(C4CCC(=O)NC4=O)C5=O)CC3)CC2)cc1)c1ccc(B(O)O)cc1)c1ccccc1 (stereo not shown) [Compound 28, (E)-(4-(1-(4-(2-(4-(2-(4-(2-(2,6-dioxopiperidin-3-yl)-1,3-dioxoisoindolin-5-yl)piperazin-1-yl)ethyl)piperidin-1-yl)ethoxy)phenyl)-2-phenylbut-1-en-1-yl)phenyl)boronic acid]

Further lines, the compound ahead of its results:

Structure (SMILES)	IC50 (ER)	DC50 (ERα)	Dmax (ERα)	IC50 [1]
CC/C(=C(/c1ccc(B(O)O)cc1)c1ccc(N2CCC(CNC3CCN(c4ccc5c(c4)C(=O)N(C4CCC(=O)NC4=O)C5)CC3)CC2)cc1)c1ccccc1 (stereo not shown) [Compound 14, (E)-(4-(1-(4-(4-(((1-(2-(2,6-dioxopiperidin-3-yl)-3-oxoisoindolin-5-yl)piperidin-4-yl)amino)methyl)piperidin-1-yl)phenyl)-2-phenylbut-1-en-1-yl)phenyl)boronic acid]	< 10 nM	< 10 nM	> 90%	< 10 nM
CC/C(=C(\c1ccc(OCCN2CCN(CCCNc3ccc4c(c3)C(=O)N(C3CCC(=O)NC3=O)C4=O)CC2)cc1)c1ccc(B(O)O)cc1)c1ccccc1 (stereo not shown) [Compound 16, (E)-(4-(1-(4-(2-(4-(3-((2-(2,6-dioxopiperidin-3-yl)-1,3-dioxoisoindolin-5-yl)amino)propyl)piperazin-1-yl)ethoxy)phenyl)-2-phenylbut-1-en-1-yl)phenyl)boronic acid]	10 to 50 nM	10 to 50 nM	> 75%	10 to 50 nM
CC/C(=C(/c1ccc(OCCN2CCN(CC3CCN(c4ccc5c(c4)C(=O)N(C4CCC(=O)NC4=O)C5=O)CC3)CC2)cc1)c1ccc(B(O)O)cc1)c1ccccc1 (stereo not shown) [Compound 17, (Z)-(4-(1-(4-(2-(4-((1-(2-(2,6-dioxopiperidin-3-yl)-1,3-dioxoisoindolin-5-yl)piperidin-4-yl)methyl)piperazin-1-yl)ethoxy)phenyl)-2-phenylbut-1-en-1-yl)phenyl)boronic acid]	10 to 50 nM	< 10 nM	> 90%	10 to 50 nM
CC/C(=C(/c1ccc(OCCN2CCN(CCN3CCN(c4ccc5c(c4)C(=O)N(C4CCC(=O)NC4=O)C5=O)CC3)CC2)cc1)c1ccc(B(O)O)cc1)c1ccccc1 (stereo not shown) [Compound 23, (Z)-(4-(1-(4-(2-(4-(2-(4-(2-(2,6-dioxopiperidin-3-yl)-1,3-dioxoisoindolin-5-yl)piperazin-1-yl)ethyl)piperazin-1-yl)ethoxy)phenyl)-2-phenylbut-1-en-1-yl)phenyl)boronic acid]	10 to 50 nM	< 10 nM	> 90%	10 to 50 nM
CC/C(=C(\c1ccc(OCCN2CCN(CCC3CCN(c4ccc5c(c4)C(=O)N(C4CCC(=O)NC4=O)C5=O)CC3)CC2)cc1)c1ccc(B(O)O)cc1)c1ccccc1 (stereo not shown) [Compound 26, (E)-(4-(1-(4-(2-(4-(2-(1-(2-(2,6-dioxopiperidin-3-yl)-1,3-dioxoisoindolin-5-yl)piperidin-4-yl)ethyl)piperazin-1-yl)ethoxy)phenyl)-2-phenylbut-1-en-1-yl)phenyl)boronic acid]	10 to 50 nM	< 10 nM	> 90%	10 to 50 nM
CC/C(=C(/c1ccc(OCCN2CCC(CCN3CCN(c4ccc5c(c4)C(=O)N(C4CCC(=O)NC4=O)C5=O)CC3)CC2)cc1)c1ccc(B(O)O)cc1)c1ccccc1 (stereo not shown) [Compound 27, (Z)-(4-(1-(4-(2-(4-(2-(4-(2-(2,6-dioxopiperidin-3-yl)-1,3-dioxoisoindolin-5-yl)piperazin-1-yl)ethyl)piperidin-1-yl)ethoxy)phenyl)-2-phenylbut-1-en-1-yl)phenyl)boronic acid]	> 50 nM	< 10 nM	> 90%	10 to 50 nM
